In patent US7919077B2, “Pharmaceutical compositions comprising CCL2 and use of same for the treatment of inflammation” (Yeda Research and Development Co. Ltd., priority 2006, dated 2011):

Assays:
[1] = tested on: naïve T cells; experiment: Tracking of cells in vivo: homing of naïve T cells to LN and spleen; set-up: species or system C57BL/6 mice; conditions: cells pre-incubated 30 min with CCL2 0.1 ng/ml, injected i.v., 3 hours, vs control
Method: Tracking of cells in vivo—T cells pre-incubated for 30 minutes in the presence or absence of CCL2 (0.1 ng/ml RPMI) were washed, and labeled with […] of the fluorescent dye CFDA-SE (Molecular Probes/Invitrogen, Carlsbad, Calif., USA) for 15 minutes at room temperature. Thereafter, an equal amount (0.33×10^7) of CCL2-treated or -untreated cells were injected i.v. into C57BL/6 mice. After 3 hours, LNs and spleens were collected and the FITC-positive population was analyzed by FACS. The proportion of labeled cells recovered in the LN and spleen was determined as previously described [Flaishon, L. R., J. Exp. Med. 192:1381 (2000)] in four different experiments (10 mice in each group).

[2] = tested on: human T cells interacting with VCAM-1 (VLA-4); experiment: Laminar flow adhesion assay on VCAM-1 with co-immobilized CCL21; type: cell-based; conditions: low dose chemokine pretreatment
Method: (§1) Laminar flow adhesion assays—Purified VCAM-1 or ICAM-1-Fc (both from R&D Systems, Minneapolis, Minn.) were coated with or without CCL21 (R&D Systems) on polystyrene plates as previously described [Grabovsky et al., J Exp Med. (2000) 192:495-506; Sigal et al., J Immunol. (2000) 165:442-452]. The polystyrene plates were each assembled on the lower wall of the flow chamber as previously described [Feigelson et al., J Biol Chem. (2001) 276:13891-13901]. All flow experiments were conducted at 37° C. Cells were washed with cation-free H/H medium, resuspended in binding medium (H/H medium supplemented with 1 mM CaCl2 and 1 mM MgCl2) and perfused through the flow chamber at low shear stress (0.5-0.75 dyn/cm^2) for 2 minutes. Tethers were defined as transient or rolling if cells attached briefly (<2 seconds) to the substrate and as arrests if immediately arrested and remaining stationary for at least 5 seconds of continuous flow. Frequencies of adhesive categories within differently pretreated cells were determined as a percentage of cells flowing immediately over the substrates, as previously described [Grabovsky et al., supra]. To assess resistance to detachment over time, accumulated cells were subjected to a shear stress of 5 dyn/cm^2 for 5 minutes. At the indicated time points, the number of cells that remained bound was expressed relative to T cell population originally accumulated in the first 2 minute period of the assay. Over 90% of cellular tethers to VCAM-1 or ICAM-1 were blocked by pretreating cells with VLA-4 or LFA-1 blockers respectively.

[3] = tested on: human T cells interacting with ICAM-1 (LFA-1); experiment: Laminar flow adhesion assay on ICAM-1 with co-immobilized CCL21; type: cell-based; conditions: low dose chemokine pretreatment
Method: as §1

Question: Which results are given for “CCL2: mammalian (e.g., human) CCL2 protein, GenBank NM_002982 / NP_002973; murine CCL2 used in the asthma model”?
Answer: reduction in homing of naïve T cells into the LN ([1]; FIG. 4a): 50%; migration of T cells to the spleen ([1]; FIG. 4b): no difference; post arrest adhesion strengthening on VCAM-1 (resistance to detachment) ([2]; high shear stress 5 dyn/cm^2, FIG. 6d): failed to develop adhesion strengthening; VLA-4 activation by surface bound CCL21 (arrest on VCAM-1) ([2]; shear stress 0.75 dyn/cm^2, FIG. 6c): did not interfere; post arrest adhesion strengthening on ICAM-1 (resistance to detachment) ([3]; high shear stress 5 dyn/cm^2, FIG. 6b): failed to develop adhesion strengthening; LFA-1 activation by surface bound CCL21 (arrest on ICAM-1) ([3]; shear stress 0.5 dyn/cm^2, FIG. 6a): did not interfere
